Data from ChEMBL document CHEMBL1138088, “Design and synthesis of selective keto-1,2,4-oxadiazole-based tryptase inhibitors” (Bioorg Med Chem Lett, 2006).

Assays:
Coagulation factor VII = biological target: T1, Coagulation factor VII (Homo sapiens, UniProt P08709); experiment: Inhibition of factor 7a; details: read-out: Ki app
T1 sequence (P08709 whole entry): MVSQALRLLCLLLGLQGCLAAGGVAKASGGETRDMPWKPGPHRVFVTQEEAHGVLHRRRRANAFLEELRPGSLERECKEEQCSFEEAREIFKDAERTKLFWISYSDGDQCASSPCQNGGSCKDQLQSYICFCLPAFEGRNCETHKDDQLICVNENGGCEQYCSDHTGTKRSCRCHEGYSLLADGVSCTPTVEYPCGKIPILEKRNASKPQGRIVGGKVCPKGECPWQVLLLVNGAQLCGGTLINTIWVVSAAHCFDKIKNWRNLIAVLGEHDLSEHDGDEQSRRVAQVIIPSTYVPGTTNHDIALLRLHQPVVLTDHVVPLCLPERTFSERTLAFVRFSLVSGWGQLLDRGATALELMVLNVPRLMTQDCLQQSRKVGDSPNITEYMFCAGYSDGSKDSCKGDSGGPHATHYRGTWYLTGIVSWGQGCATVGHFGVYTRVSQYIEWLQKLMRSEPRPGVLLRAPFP

Chymotrypsinogen B = Chymotrypsinogen B (Homo sapiens, UniProt P17538); experiment: Inhibition of chymotrypsin; details: read-out: Ki app
Chymotrypsinogen B, sequence (P17538 34-164 limits assumed, other chains not shown): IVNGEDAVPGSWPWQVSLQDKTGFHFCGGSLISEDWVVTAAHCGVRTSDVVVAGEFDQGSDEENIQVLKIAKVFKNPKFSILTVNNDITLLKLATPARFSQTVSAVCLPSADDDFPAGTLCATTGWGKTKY
Chymotrypsinogen B, sequence (P17538 167-263 limits assumed, other chains not shown): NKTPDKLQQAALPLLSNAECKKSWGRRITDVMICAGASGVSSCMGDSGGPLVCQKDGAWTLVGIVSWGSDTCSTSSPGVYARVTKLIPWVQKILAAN

Prothrombin = Prothrombin (Homo sapiens, UniProt P00734); experiment: Inhibition of thrombin; details: read-out: Ki app
Chymase = biological target: T2, Chymase (Homo sapiens, UniProt P23946); experiment: Inhibition of chymase; details: read-out: Ki app
T2 sequence (P23946 whole entry): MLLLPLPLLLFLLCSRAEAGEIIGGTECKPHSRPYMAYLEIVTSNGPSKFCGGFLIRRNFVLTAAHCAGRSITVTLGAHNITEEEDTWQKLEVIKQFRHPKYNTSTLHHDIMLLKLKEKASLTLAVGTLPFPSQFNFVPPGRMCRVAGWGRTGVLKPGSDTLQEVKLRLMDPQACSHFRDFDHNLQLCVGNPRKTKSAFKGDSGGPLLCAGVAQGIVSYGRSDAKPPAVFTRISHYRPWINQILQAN

Coagulation factor IX = Coagulation factor IX (Homo sapiens, UniProt P00740); experiment: Inhibition of factor 9a; details: read-out: Ki app
Coagulation factor IX, sequence (P00740 47-191 limits assumed): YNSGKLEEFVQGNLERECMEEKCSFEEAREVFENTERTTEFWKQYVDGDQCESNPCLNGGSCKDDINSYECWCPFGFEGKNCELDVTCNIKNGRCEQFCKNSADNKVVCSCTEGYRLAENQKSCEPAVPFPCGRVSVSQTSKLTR
Coagulation factor IX, sequence (P00740 227-461 limits assumed): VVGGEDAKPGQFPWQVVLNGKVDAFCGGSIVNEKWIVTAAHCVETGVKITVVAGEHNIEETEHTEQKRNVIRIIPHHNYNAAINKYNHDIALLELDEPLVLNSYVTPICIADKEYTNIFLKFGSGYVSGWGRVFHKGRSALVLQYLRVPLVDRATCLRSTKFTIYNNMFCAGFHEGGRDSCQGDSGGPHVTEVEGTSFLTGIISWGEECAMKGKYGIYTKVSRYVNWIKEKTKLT

Cathepsin G = biological target: T3, Cathepsin G (Homo sapiens, UniProt P08311); experiment: Inhibition of cathepsin G; details: read-out: Ki app
T3 sequence (P08311 whole entry): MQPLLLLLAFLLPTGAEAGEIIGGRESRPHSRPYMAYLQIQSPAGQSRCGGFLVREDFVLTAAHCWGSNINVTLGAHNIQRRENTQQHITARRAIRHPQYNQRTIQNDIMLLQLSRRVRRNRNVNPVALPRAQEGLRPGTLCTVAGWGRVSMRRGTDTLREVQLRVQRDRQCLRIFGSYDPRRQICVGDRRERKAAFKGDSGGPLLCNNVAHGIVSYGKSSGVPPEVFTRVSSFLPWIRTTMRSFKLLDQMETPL

Plasma kallikrein = Plasma kallikrein (Homo sapiens, UniProt P03952); experiment: Inhibition of kallikrein; details: read-out: Ki app
Plasma kallikrein, sequence (P03952 20-390 limits assumed): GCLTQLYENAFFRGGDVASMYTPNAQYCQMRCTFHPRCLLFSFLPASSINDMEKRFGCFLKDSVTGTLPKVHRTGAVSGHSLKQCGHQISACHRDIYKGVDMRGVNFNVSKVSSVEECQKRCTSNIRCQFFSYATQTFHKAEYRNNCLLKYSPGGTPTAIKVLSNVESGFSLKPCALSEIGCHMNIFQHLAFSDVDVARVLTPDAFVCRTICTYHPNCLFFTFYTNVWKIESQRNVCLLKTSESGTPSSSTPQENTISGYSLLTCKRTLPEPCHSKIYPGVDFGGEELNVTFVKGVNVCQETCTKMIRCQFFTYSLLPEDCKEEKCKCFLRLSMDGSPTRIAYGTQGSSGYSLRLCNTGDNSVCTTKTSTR
Plasma kallikrein, sequence (P03952 391-638 limits assumed): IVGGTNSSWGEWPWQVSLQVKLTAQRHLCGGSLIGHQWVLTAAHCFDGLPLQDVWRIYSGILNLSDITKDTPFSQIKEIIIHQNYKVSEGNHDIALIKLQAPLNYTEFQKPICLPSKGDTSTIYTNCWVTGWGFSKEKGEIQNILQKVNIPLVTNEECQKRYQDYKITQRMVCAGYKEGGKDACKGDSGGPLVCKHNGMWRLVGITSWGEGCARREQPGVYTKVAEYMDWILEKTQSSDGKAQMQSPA

Coagulation factor X = Coagulation factor X (Homo sapiens, UniProt P00742); experiment: Inhibition of factor 10a; details: read-out: Ki app
Coagulation factor X, sequence (P00742 41-179 limits assumed): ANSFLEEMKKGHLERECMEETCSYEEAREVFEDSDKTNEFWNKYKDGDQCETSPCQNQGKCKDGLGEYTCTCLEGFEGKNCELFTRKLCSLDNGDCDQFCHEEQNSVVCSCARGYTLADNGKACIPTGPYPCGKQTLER
Coagulation factor X, sequence (P00742 235-488 limits assumed): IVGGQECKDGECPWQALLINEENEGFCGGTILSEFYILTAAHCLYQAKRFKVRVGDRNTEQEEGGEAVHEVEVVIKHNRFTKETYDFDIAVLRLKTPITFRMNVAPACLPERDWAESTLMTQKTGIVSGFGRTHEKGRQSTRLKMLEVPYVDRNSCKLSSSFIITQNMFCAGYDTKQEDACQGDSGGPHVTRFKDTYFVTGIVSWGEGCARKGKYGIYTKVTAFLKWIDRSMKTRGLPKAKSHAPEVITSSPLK

Plasminogen = Plasminogen (Homo sapiens, UniProt P00747); experiment: Inhibition of plasmin; details: read-out: Ki app
Plasminogen, sequence (P00747 97-580 limits assumed): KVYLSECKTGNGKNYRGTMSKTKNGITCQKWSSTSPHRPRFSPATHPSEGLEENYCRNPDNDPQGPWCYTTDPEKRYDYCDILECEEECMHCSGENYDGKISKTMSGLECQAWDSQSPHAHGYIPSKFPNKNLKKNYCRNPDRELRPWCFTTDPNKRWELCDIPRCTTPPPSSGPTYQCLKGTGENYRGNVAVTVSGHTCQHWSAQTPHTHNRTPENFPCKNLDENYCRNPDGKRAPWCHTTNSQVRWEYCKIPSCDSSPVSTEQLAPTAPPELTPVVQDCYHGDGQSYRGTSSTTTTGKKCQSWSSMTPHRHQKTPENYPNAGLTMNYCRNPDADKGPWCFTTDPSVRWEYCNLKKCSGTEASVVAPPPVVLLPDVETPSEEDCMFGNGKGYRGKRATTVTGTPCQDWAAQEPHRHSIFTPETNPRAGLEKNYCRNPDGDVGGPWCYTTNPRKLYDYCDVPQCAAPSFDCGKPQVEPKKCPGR
Plasminogen, sequence (P00747 581-810 limits assumed): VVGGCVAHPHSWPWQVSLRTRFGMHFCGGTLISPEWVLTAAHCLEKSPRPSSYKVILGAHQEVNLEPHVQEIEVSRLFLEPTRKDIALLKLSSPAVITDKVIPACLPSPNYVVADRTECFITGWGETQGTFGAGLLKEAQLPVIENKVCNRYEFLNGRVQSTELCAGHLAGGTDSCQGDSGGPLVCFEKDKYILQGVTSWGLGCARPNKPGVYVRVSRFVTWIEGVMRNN

Trypsin = Trypsin (Homo sapiens, UniProt P07477+P07478+P35030); experiment: Inhibition of trypsin; assay type: protein assay
[1] = Inhibition of elastase; parameters: species or system Homo sapiens; details: read-out: Ki app
Granzyme K = biological target: T4, Granzyme K (Homo sapiens, UniProt P49863); experiment: Inhibition of granzyme K; details: read-out: Ki app
T4 sequence (P49863 whole entry): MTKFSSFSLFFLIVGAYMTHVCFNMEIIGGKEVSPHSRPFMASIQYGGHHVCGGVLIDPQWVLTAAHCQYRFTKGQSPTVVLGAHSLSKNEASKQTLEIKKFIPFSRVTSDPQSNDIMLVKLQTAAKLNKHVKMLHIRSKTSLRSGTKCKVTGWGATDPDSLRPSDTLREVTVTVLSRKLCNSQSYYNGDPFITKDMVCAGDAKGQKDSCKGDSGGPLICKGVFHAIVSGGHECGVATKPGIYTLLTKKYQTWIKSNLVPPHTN

[2] = biological target: Urokinase-type plasminogen activator (Homo sapiens, UniProt P00749); experiment: Inhibition of urokinase; details: read-out: Ki app
Coagulation factor XI = Coagulation factor XI (Homo sapiens, UniProt P03951); experiment: Inhibition of factor 11a; details: read-out: Ki app
Coagulation factor XI, sequence (P03951 19-387 limits assumed): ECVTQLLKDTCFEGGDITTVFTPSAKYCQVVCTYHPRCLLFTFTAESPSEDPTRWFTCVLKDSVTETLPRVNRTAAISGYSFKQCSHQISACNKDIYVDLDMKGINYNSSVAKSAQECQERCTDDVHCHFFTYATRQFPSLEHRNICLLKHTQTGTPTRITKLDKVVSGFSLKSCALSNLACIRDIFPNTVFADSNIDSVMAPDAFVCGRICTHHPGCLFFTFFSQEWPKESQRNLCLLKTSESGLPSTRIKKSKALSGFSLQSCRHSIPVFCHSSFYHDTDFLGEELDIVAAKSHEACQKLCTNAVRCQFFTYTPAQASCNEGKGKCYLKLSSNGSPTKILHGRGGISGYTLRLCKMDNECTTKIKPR
Coagulation factor XI, sequence (P03951 388-625 limits assumed): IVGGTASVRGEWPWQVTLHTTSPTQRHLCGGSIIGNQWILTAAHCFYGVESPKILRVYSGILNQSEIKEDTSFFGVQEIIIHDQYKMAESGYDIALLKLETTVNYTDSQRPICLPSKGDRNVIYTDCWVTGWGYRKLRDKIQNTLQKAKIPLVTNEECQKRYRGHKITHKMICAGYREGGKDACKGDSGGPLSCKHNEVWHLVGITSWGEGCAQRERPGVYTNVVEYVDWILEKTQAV

[3] = biological target: Vitamin K-dependent protein C (Homo sapiens, UniProt P04070); experiment: Inhibition of APC; details: read-out: Ki app
Vitamin K-dependent protein C, sequence (P04070 43-197 limits assumed): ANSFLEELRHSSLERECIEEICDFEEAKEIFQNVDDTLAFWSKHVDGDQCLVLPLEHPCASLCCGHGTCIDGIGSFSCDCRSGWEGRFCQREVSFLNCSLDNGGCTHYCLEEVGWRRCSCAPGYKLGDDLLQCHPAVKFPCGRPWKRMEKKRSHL
Vitamin K-dependent protein C, sequence (P04070 212-461 limits assumed): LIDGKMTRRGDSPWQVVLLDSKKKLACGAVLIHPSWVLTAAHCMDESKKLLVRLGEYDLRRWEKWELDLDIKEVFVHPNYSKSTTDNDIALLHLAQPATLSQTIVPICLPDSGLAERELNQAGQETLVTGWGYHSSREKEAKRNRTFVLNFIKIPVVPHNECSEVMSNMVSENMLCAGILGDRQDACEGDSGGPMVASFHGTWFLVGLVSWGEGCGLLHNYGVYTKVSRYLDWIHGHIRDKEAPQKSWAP

Homo sapiens = species: Homo sapiens; experiment: Selectivity for tryptase over trypsin
Tryptase beta-1 = Tryptase beta-1 (Homo sapiens, UniProt Q15661); experiment: Inhibition of human B tryptase; details: read-out: Ki app
Tryptase beta-1, sequence (Q15661 whole entry): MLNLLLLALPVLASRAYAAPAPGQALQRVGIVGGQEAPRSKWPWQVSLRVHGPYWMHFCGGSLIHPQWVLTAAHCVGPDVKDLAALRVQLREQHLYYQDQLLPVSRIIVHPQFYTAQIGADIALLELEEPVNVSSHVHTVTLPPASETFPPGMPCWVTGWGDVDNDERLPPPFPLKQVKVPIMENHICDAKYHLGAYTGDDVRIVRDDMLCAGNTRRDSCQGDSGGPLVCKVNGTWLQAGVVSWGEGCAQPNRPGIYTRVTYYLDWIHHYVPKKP

[4] = Mean residence time in rat at 0.5 mg/kg, iv; assay type: ADME, organism-based; parameters: dose 0.5 mg/kg, route intravenous; details: in vivo
[5] = Terminal half life in rat at 5 mg/kg, po; assay type: ADME, organism-based; parameters: dose 5 mg/kg, route oral; details: in vivo
[6] = Cmax in rat at 0.5 mg/kg, iv; assay type: ADME, organism-based; parameters: dose 0.5 mg/kg, route intravenous; details: in vivo
[7] = Central volume of distribution in rat at 0.5 mg/kg, iv; assay type: ADME, organism-based; parameters: dose 0.5 mg/kg, route intravenous; details: in vivo, read-out: Vc
[8] = Oral absorption in rat at 5 mg/kg, po; assay type: ADME, organism-based; parameters: dose 5 mg/kg, route oral; details: in vivo
[9] = Clearance in rat at 0.5 mg/kg, iv; assay type: ADME, organism-based; parameters: dose 0.5 mg/kg, route intravenous; details: in vivo
[10] = Oral bioavailability in rat at 5 mg/kg, po; assay type: ADME, organism-based; details: in vivo
[11] = AUC in rat at 0.5 mg/kg, iv; assay type: ADME, organism-based; parameters: dose 0.5 mg/kg, route intravenous; details: plasma
[12] = Terminal half life in rat at 0.5 mg/kg, iv; assay type: ADME, organism-based; parameters: dose 0.5 mg/kg, route intravenous; details: in vivo
[13] = Steady state volume of distribution in rat at 0.5 mg/kg, iv; assay type: ADME, organism-based; parameters: dose 0.5 mg/kg, route intravenous; details: in vivo, read-out: Vss

Row | Structure (SMILES) | Ki app (Trypsin) [nM] | Selectivity ratio (Homo sapiens) | Ki (Tryptase beta-1) [nM] | also measured
1 | Cl.NCCCC[C@H](NC(=O)c1ccc(F)c(F)c1)C(=O)c1noc(Cc2ccc(OCCc3ccc(Cl)c(Cl)c3)cc2)n1 | 3300 |  |  | Ki (Coagulation factor VII): > 150000 nM; Ki (Chymotrypsinogen B): > 150000 nM; Ki (Prothrombin): > 150000 nM; Ki (Chymase): > 150000 nM; Ki (Coagulation factor IX): > 150000 nM; Ki (Cathepsin G): > 150000 nM; Ki (Plasma kallikrein): 83000 nM; Ki (Coagulation factor X): > 150000 nM; Ki (Plasminogen): 910 nM; Ki [1]: > 150000 nM; Ki (Granzyme K): > 150000 nM; Ki [2]: > 150000 nM; Ki (Coagulation factor XI): > 150000 nM; Ki [3]: > 150000 nM
2 | Cl.NCCCC[C@H](NC(=O)c1ccc(Cl)cc1)C(=O)c1noc(Cc2ccc(OCCc3ccc(Cl)c(Cl)c3)cc2)n1 | 2550 | 389 | 6.55 | 
3 | NCCCC[C@H](NC(=O)C1CC1)C(=O)c1noc(Cc2ccc(OCCc3ccc(Cl)c(Cl)c3)cc2)n1 |  | 10 | 4.6 | 
4 | CC(C)OC(=O)N[C@@H](CCCCN)C(=O)c1noc(Cc2ccc(OCCc3ccc(Cl)c(Cl)c3)cc2)n1.Cl | 415 | 83 | 5 | 
5 | Cc1cc(C(=O)N[C@@H](CCCCN)C(=O)c2noc(Cc3ccc(OCCc4ccc(Cl)c(Cl)c4)cc3)n2)c(C)o1.Cl | 3900 | 85 | 46 | 
6 | Cl.NCCCC[C@H](NC(=O)C1CCOC1)C(=O)c1noc(Cc2ccc(OCCc3ccc(Cl)c(Cl)c3)cc2)n1 (stereo partly drawn) | 1100 | 50 | 22 | 
7 | Cl.NCCCC[C@H](NC(=O)c1cccc(F)c1)C(=O)c1noc(Cc2ccc(OCCc3ccc(Cl)c(Cl)c3)cc2)n1 | 1700 | 293 | 5.8 | 
8 | Cl.NCCCC[C@H](NC(=O)C(F)(F)F)C(=O)c1noc(Cc2ccc(OCCc3ccc(Cl)c(Cl)c3)cc2)n1 | 220 | 76 | 2.9 | 
9 | CCOC(=O)N[C@@H](CCCCN)C(=O)c1noc(Cc2ccc(OCCc3ccccc3)cc2)n1 | 190 |  | 5.4 | Ki (Chymotrypsinogen B): > 150000 nM; Ki (Prothrombin): 64000 nM; Ki (Chymase): > 150000 nM; Ki (Plasma kallikrein): 43000 nM; Ki (Plasminogen): 430 nM; Ki [1]: > 150000 nM; Ki (Granzyme K): > 150000 nM; Ki [2]: > 150000 nM; Ki [3]: > 150000 nM
10 | Cl.NCCCC[C@H](NC(=O)N1CCCCC1)C(=O)c1noc(Cc2ccc(OCCc3ccc(Cl)c(Cl)c3)cc2)n1 | 1400 | 152 | 9.2 | 
11 | COCCOC(=O)N[C@@H](CCCCN)C(=O)c1noc(Cc2ccc(OCCc3ccc(Cl)c(Cl)c3)cc2)n1.Cl | 500 | 100 | 5 | 
12 | CCOC(=O)N[C@@H](CCCCN)C(=O)c1noc(Cc2ccc(OCCc3ccc(Cl)c(Cl)c3)cc2)n1.Cl | 380 | 81 | 4.7 | 
13 | CC(C)(C)COC(=O)N[C@@H](CCCCN)C(=O)c1noc(Cc2ccc(OCCc3ccc(Cl)c(Cl)c3)cc2)n1.Cl | 1900 | 173 | 11 | 
14 | CCCCCC(=O)N[C@@H](CCCCN)C(=O)c1noc(Cc2ccc(OCCc3ccc(Cl)c(Cl)c3)cc2)n1.Cl | 180 | 18 | 9.8 | 
15 | Cl.NCCCC[C@H](NC(=O)c1ccco1)C(=O)c1noc(Cc2ccc(OCCc3ccc(Cl)c(Cl)c3)cc2)n1 | 480 | 209 | 2.3 | 
16 | Cl.NCCCC[C@H](NC(=O)C1CCCC1)C(=O)c1noc(Cc2ccc(OCCc3ccc(Cl)c(Cl)c3)cc2)n1 | 300 | 46 | 6.5 | 
17 | CC(C)C(=O)N[C@@H](CCCCN)C(=O)c1noc(Cc2ccc(OCCc3ccc(Cl)c(Cl)c3)cc2)n1.Cl | 120 | 18 | 6.8 | 
18 | Cl.NCCCC[C@H](NC(=O)c1ccccc1F)C(=O)c1noc(Cc2ccc(OCCc3ccc(Cl)c(Cl)c3)cc2)n1 | 1100 | 177 | 6.2 | 
19 | COC(=O)N[C@@H](CCCCN)C(=O)c1noc(Cc2ccc(OCCc3ccc(Cl)c(Cl)c3)cc2)n1.Cl | 2200 | 129 | 17 | 
20 | CCN(CC)C(=O)N[C@@H](CCCCN)C(=O)c1noc(Cc2ccc(OCCc3ccc(Cl)c(Cl)c3)cc2)n1.Cl | 2400 | 133 | 18 | 
21 | Cl.NCCCC[C@H](NC(=O)N1CCOCC1)C(=O)c1noc(Cc2ccc(OCCc3ccc(Cl)c(Cl)c3)cc2)n1 | 870 | 153 | 5.7 | 
22 | CN(C)C(=O)N[C@@H](CCCCN)C(=O)c1noc(Cc2ccc(OCCc3ccc(Cl)c(Cl)c3)cc2)n1.Cl | 850 | 89 | 9.6 | 
23 | Cl.NCCCC[C@H](NC(=O)c1ccc(F)cc1)C(=O)c1noc(Cc2ccc(OCCc3ccc(Cl)c(Cl)c3)cc2)n1 | 1100 |  |  | MRT [4]: 2.88 h; half-life [5]: 2.25 h; Cmax [6]: 1010 nM; Vd [7]: 0.457 L/kg; Fa [8]: 12%; clearance [9]: 45 mL/min/kg; bioavailability [10]: 9%; AUC [11]: 0.3 µM·h; half-life [12]: 2.9 h; Vd [13]: 7.8 L/kg
24 | Cl.NCCCC[C@H](NC(=O)c1ccc(F)cc1F)C(=O)c1noc(Cc2ccc(OCCc3ccc(Cl)c(Cl)c3)cc2)n1 | 1150 | 354 | 3.25 | 
25 | CC(C)(C)C(=O)N[C@@H](CCCCN)C(=O)c1noc(Cc2ccc(OCCc3ccc(Cl)c(Cl)c3)cc2)n1.Cl | 625 | 167 | 3.75 | 
26 | Cl.NCCCC[C@H](NC(=O)N1CCCC1)C(=O)c1noc(Cc2ccc(OCCc3ccc(Cl)c(Cl)c3)cc2)n1 | 3800 | 119 | 32 | 
27 | COCC(=O)N[C@@H](CCCCN)C(=O)c1noc(Cc2ccc(OCCc3ccc(Cl)c(Cl)c3)cc2)n1.Cl | 190 | 51 | 3.7 | 
